Test results taken from the OligoGym collection.
“And” between values parts separate entries of the source, which are not always exact repeats. Equal values may be shown once. After the bases stand the sugars from the 5' end (letter, count) and the backbone: PS all phosphorothioate, else s phosphorothioate and o phosphodiester by linkage. Methylation of C is not given here. e = 2'-O-(2-methoxyethyl) (MOE); k = constrained ethyl (cEt); d = 2'-deoxy (DNA)

Target: IRF4
Conditions: ASO

CTCTATAGTGTTCCAG (sugars k3 d10 k3, PS)
target mRNA inhibition (SK-MEL-28, 4 µM): 66%

CTCTATAGTGTTCCAG (sugars kdddddddddkekeke, PS)
target mRNA inhibition (MM.1R, 1 µM): 11%

CTCTGACAAGAACTGC (sugars k3 d10 k3, PS)
target mRNA inhibition (SK-MEL-28, 4 µM): 30%

CTCTTTAAAATATCGC (sugars k3 d10 k3, PS)
target mRNA inhibition (SK-MEL-28, 4 µM): 56%

CTGAGATAGGAAGCAC (sugars k3 d10 k3, PS)
target mRNA inhibition (SK-MEL-28, 4 µM): 26%

CTGCAAATCCCTCTTG (sugars k3 d10 k3, PS)
target mRNA inhibition (SK-MEL-28, 4 µM): -33%

CTGCATTTGCAAATAA (sugars k3 d10 k3, PS)
target mRNA inhibition (SK-MEL-28, 4 µM): -21%

CTGCGAAGCGCGCGCG (sugars k3 d10 k3, PS)
target mRNA inhibition (MM.1R, 1 µM): -6%

CTGCTCACTAAGCTTG (sugars k3 d10 k3, PS)
target mRNA inhibition (SK-MEL-28, 0.185 µM): 6% and 5% and -1%
target mRNA inhibition (SK-MEL-28, 4 µM): 73%
target mRNA inhibition (SK-MEL-28, 15 µM): 78% and 80% and 94%

CTGCTGCCCAATACAT (sugars k3 d10 k3, PS)
target mRNA inhibition (SK-MEL-28, 4 µM): 47%

CTGCTTGAGGTTTTCC (sugars e1 k2 d9 k2 e2, PS)
target mRNA inhibition (MM.1R, 0.074 µM): 6%
target mRNA inhibition (MM.1R, 0.222 µM): 21%
target mRNA inhibition (MM.1R, 0.666 µM): 38%
target mRNA inhibition (MM.1R, 1 µM): 52%
target mRNA inhibition (MM.1R, 2 µM): 60%

CTGCTTGAGGTTTTCC (sugars kkddddddddddkeke, PS)
target mRNA inhibition (MM.1R, 1 µM): 44%

CTGCTTGAGGTTTTCC (sugars kkkddddddddkekek, PS)
target mRNA inhibition (MM.1R, 1 µM): 26%

CTGGAGGTCGAACCTC (sugars k3 d10 k3, PS)
target mRNA inhibition (SK-MEL-28, 4 µM): 2%

CTGGATATGTGGTGTT (sugars k3 d10 k3, PS)
target mRNA inhibition (MM.1R, 1 µM): 30%

CTGGGCCTTGCCAGTG (sugars k3 d10 k3, PS)
target mRNA inhibition (SK-MEL-28, 4 µM): -14%

CTGTAAGGGCTGCTCA (sugars k3 d10 k3, PS)
target mRNA inhibition (SK-MEL-28, 4 µM): 56%

CTGTATAGTTCTCAAC (sugars k3 d10 k3, PS)
target mRNA inhibition (SK-MEL-28, 4 µM): 52%

CTGTATGGAACCCCAA (sugars k3 d10 k3, PS)
target mRNA inhibition (MM.1R, 1 µM): 3%

CTGTTACCGATGCTTC (sugars kkddddddddddkeke, PS)
target mRNA inhibition (MM.1R, 1 µM): 43% and 37%

CTGTTACCGATGCTTC (sugars kkdddddddddkekek, PS)
target mRNA inhibition (MM.1R, 1 µM): 52% and 44%

CTTAAGCTAAACTCCT (sugars k3 d10 k3, PS)
target mRNA inhibition (SK-MEL-28, 4 µM): 27%

CTTAGAATGAGAGGTG (sugars k3 d10 k3, PS)
target mRNA inhibition (MM.1R, 1 µM): 1%

CTTAGGAACGAAGAGC (sugars k3 d10 k3, PS)
target mRNA inhibition (SK-MEL-28, 4 µM): 7%

CTTCACTACCTGCAGC (sugars k3 d10 k3, PS)
target mRNA inhibition (SK-MEL-28, 4 µM): 22%

CTTCATTTACTGTTAC (sugars k3 d10 k3, PS)
target mRNA inhibition (SK-MEL-28, 4 µM): 31%

CTTCTTTATGCGAAGA (sugars k3 d10 k3, PS)
target mRNA inhibition (SK-MEL-28, 4 µM): -5%

CTTGATAAAGGCTGAA (sugars e1 k2 d9 k2 e2, PS)
target mRNA inhibition (MM.1R, 1 µM): 17%

CTTGATAAAGGCTGAA (sugars k3 d10 k3, PS)
target mRNA inhibition (SK-MEL-28, 4 µM): 60%

CTTGATAAAGGCTGAA (sugars kkddddddddddkeke, PS)
target mRNA inhibition (MM.1R, 1 µM): 4%

CTTGATAAAGGCTGAA (sugars kkdddddddddkdkdk, PS)
target mRNA inhibition (MM.1R, 1 µM): 1%

CTTGATAAAGGCTGAA (sugars kkdddddddddkekek, PS)
target mRNA inhibition (MM.1R, 1 µM): 12%

CTTGATAAAGGCTGAA (sugars kkkdddddddddkeke, PS)
target mRNA inhibition (MM.1R, 1 µM): 24%

CTTGCAGCTCTGACAA (sugars k3 d10 k3, PS)
target mRNA inhibition (SK-MEL-28, 4 µM): 9%

CTTGCCAGTGGTGGCC (sugars k3 d10 k3, PS)
target mRNA inhibition (SK-MEL-28, 4 µM): 16%

CTTGCCGCTGTCGATC (sugars k4 d8 k4, PS)
target mRNA inhibition (SK-MEL-28, 4 µM): 42%

CTTGGCTGTGGGATGC (sugars k3 d10 k3, PS)
target mRNA inhibition (MM.1R, 1 µM): 21%

CTTGGTCAATTTTCAC (sugars k3 d10 k3, PS)
target mRNA inhibition (SK-MEL-28, 4 µM): 53%

CTTGTCTCCCCCAGAG (sugars k3 d10 k3, PS)
target mRNA inhibition (SK-MEL-28, 4 µM): 3%

CTTGTCTCGCCGCAAT (sugars k3 d10 k3, PS)
target mRNA inhibition (SK-MEL-28, 4 µM): 65% and 47%

CTTTACACAGTTCTAA (sugars k3 d10 k3, PS)
target mRNA inhibition (SK-MEL-28, 4 µM): -13%

CTTTAGTGTCGCCATG (sugars k3 d10 k3, PS)
target mRNA inhibition (SK-MEL-28, 4 µM): 29%

CTTTATAGTAGGTAAG (sugars k3 d10 k3, PS)
target mRNA inhibition (MM.1R, 1 µM): -1%

CTTTCCCATGGTTACT (sugars k3 d10 k3, PS)
target mRNA inhibition (MM.1R, 1 µM): 8%

CTTTGAAGTGCTGTGT (sugars k3 d10 k3, PS)
target mRNA inhibition (SK-MEL-28, 4 µM): 16%

CTTTGAGGCTGCGAAG (sugars k3 d10 k3, PS)
target mRNA inhibition (MM.1R, 1 µM): 2%

CTTTGATGAGCAGATC (sugars k3 d10 k3, PS)
target mRNA inhibition (SK-MEL-28, 4 µM): 12%

CTTTTTTGGCTCCCTC (sugars k4 d8 k4, PS)
target mRNA inhibition (MM.1R, 0.074 µM): -3%
target mRNA inhibition (MM.1R, 0.222 µM): -3%
target mRNA inhibition (MM.1R, 0.666 µM): 9%
target mRNA inhibition (MM.1R, 2 µM): 25%
target mRNA inhibition (SK-MEL-28, 0.185 µM): 4% and 9% and 8%
target mRNA inhibition (SK-MEL-28, 4 µM): 46%
target mRNA inhibition (SK-MEL-28, 5 µM): 45% and 42% and 62%
target mRNA inhibition (SK-MEL-28, 15 µM): 63% and 68% and 81%

GAAAACTCTAACCCTA (sugars k3 d10 k3, PS)
target mRNA inhibition (SK-MEL-28, 4 µM): 9%

GAAAAGAGCCGCCACA (sugars k3 d10 k3, PS)
target mRNA inhibition (SK-MEL-28, 4 µM): 7%
